pIC50: −log10 of the molar value.
How the values were obtained:
[1] = organism: Rattus norvegicus; experiment: Compound was tested for its ability to inhibit dopamine uptake; format: functional, organism-based
[2] = organism: Rattus norvegicus; experiment: Compound was tested for its ability to inhibit norepinephrine uptake; format: functional, organism-based
[3] = organism: Rattus norvegicus; experiment: Compound was tested for its ability to inhibit serotonin uptake; format: functional, organism-based
[4] = organism: Rattus norvegicus; experiment: Determined from log concentration-inhibition curves using rat brain mitochondrial preparation as enzyme and [14C]5-HT (5-HT) as a substrate; format: functional
[5] = tested on: Rattus norvegicus; experiment: Compound was tested for the behavioral changes in reserpinized rats that indicates the release of dopamine by subcuteneous administration; format: functional
[6] = tested on: Rattus norvegicus; experiment: Compound was tested for the behavioral changes in reserpinized rats that indicates the release of serotonin (5-HT syndrome) by subcuteneous administration; format: functional
[7] = organism: Rattus norvegicus; experiment: Determined from log concentration-inhibition curves using rat brain mitochondrial preparation as enzyme and phenethylamine (PEA) as a substrate; format: functional
[8] = tested on: Rattus norvegicus; experiment: Compound was tested for the behavioral changes in reserpinized rats that indicates the release of norepinephrine (reversal of ptosis) by subcuteneous administration; format: functional
[9] = Ratio between inhibition of outside DA neurons to that of inside DA neurons; format: functional
[10] = Ratio (PEA/5-HT) of the compound; format: functional
[11] = Ratio between inhibition of outside 5-HT neurons to that of inside 5-HT neurons; format: functional
[12] = Ratio between inhibition of outside NE neurons to that of inside NE neurons; format: functional
[13] = organism: Rattus norvegicus; experiment: Compound was tested for its ability to inhibit norepinephrine uptake.; format: functional, organism-based

SMILES	pIC50 [1]	pIC50 [2]	pIC50 [3]	pIC50 [4]	Least dose [5] [mg/kg]	Least dose [6] [mg/kg]	pIC50 [7]	Least dose [8] [mg/kg]	Ratio [9]	Ratio [10]	Ratio [11]	Ratio [12]	pIC50 [13]
CCc1cc(N)ccc1CC(C)N (centres undefined)	4.70	5.70	5.00	4.22	>269	>269	2.92	>269	–	–	–	–	–
CC(N)Cc1ccc(N)cc1F (centres undefined)	6.38	7.30	5.89	6.12	35	140	3.10	17	23	1070	9	71	–
CC(N)Cc1ccc(N)cc1Cl (centres undefined)	7.15	6.72	5.52	6.57	>131	33	3.12	16	3.3	2780	20	>70	–
CC(C)(N)Cc1ccc(N)cc1F	5.80	6.49	4.57	5.22	264	>264	2.55	264	4.1	467	1.6	>2	–
Cc1cc(N)c(Br)cc1CC(C)N (centres undefined)	5.70	6.26	5.19	5.82	>211	211	3.54	211	2.1	193	>2	>4	–
CC(N)Cc1ccc(N)cc1 (centres undefined)	6.80	7.15	4.70	5.17	72	276	2.15	72	19	1030	>>5	>10	–
Cc1cc(N)ccc1CC(C)(C)N	4.40	6.44	5.59	4.70	>269	>269	2.82	>269	–	75	>1	–	–
CC(N)Cc1c(Cl)cc(N)cc1Cl (centres undefined)	4.52	5.66	4.52	7.92	229	>229	3.47	115	1.5	28300	1	2.2	–
CC(C)(N)Cc1ccc(N)cc1Cl	4.82	–	5.26	5.89	>247	>247	2.77	247	2.5	1310	6	4.5	6.22
Cc1cc(N)ccc1CC(C)N (centres undefined)	4.96	6.49	5.05	5.80	>270	270	2.60	270	9.7	1560	>>5	>12	–

Reference: ChEMBL document CHEMBL1123271, “Selective monoamine oxidase inhibitors. 4. 4-Aminophenethylamine derivatives with neuron-selective action” (J Med Chem, 1986)
